2 molecules from US12502385B2, “Analogs of deutetrabenazine, their preparation and use” (Auspex Pharmaceuticals, Inc., priority 2017, dated 2025) can be followed below.

Data set [1] concerns mice. To be noted: mouse, in vivo. The method, then: A 3-day GLP mouse micronucleus study was conducted with Compound 1. That study included a GLP Bacterial Reverse Mutation Assay of deutetrabenazine with Compound 1. That study also included an in vitro Chromosome Aberration Test in Cultured Human Peripheral Blood Lymphocytes. In the study, the highest level of 80 mg/kg/day of deutetrabenazine was not genotoxic in males and females. That dose level was predicted to provide 2.77 mg Compound 1/kg/day in mice, which approximates to a human equivalent dose of 0.23 mg/kg.

Data set [2] in a line: 90-day GLP general rat toxicology study. The method, then:
A 90-day GLP general rat toxicology study was conducted with Compound 1.

Several values for one entry are separate records, joined by “and”; a condition that tells them apart may be missing. Equal entries are not always repeated.

As to `[2H]C([2H])([2H])Oc1cc2c(cc1OC([2H])([2H])[2H])[C@@H]1CC(=O)[C@H](CC(C)C)CN1CC2` (racemic) [Compound 1, (RS, SR)-1,3,4,6,7,11b-hexahydro-9,10-di(methoxy-d3)-3-(2-methylpropyl)-2H-benzo[a]quinolizin-2-one], in data set [1] (both, 3 day), the “Compound 1 dose provided at the non-genotoxic deutetrabenazine level” value worked out at 2.77 mg/kg/day and the “human equivalent dose of Compound 1 at the non-genotoxic level” value is recorded as ~0.23 mg/kg. In addition, in data set [2] (in vivo), the NOAEL at 90 day was 0.346 mg/kg/day and ~0.056 mg/kg.

For the molecule `[2H]C([2H])([2H])Oc1cc2c(cc1OC([2H])([2H])[2H])C1CC(=O)C(CC(C)C)CN1CC2` (centres unmarked) [deutetrabenazine, d6-Tetrabenazine], the genotoxicity entry in data set [1] (80 mg/kg/day) is “not genotoxic”. In data set [2] (rat), this molecule registered an NOAEL at 90 day of 10 mg/kg/day.
